Measurements published in PubChem BioAssay (NCI).
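Protocol summary: plate cells (96-well), add compound at 5 concentrations, incubate 48 h, interpolate endpoints linearly. At the GI50, growth is halved. TGI is the concentration that stops growth completely.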

Legend:
Assay in all cases: NCI-60 cell line screen, 48 h
ACHN renal = test system: ACHN renal
HT29 colon = test system: HT29 colon
IGROV1 ovarian = test system: IGROV1 ovarian
NCI-H226 lung = test system: NCI-H226 lung
SNB-19 CNS = test system: SNB-19 CNS
TK-10 renal = test system: TK-10 renal
OVCAR-4 ovarian = test system: OVCAR-4 ovarian
SNB-75 CNS = test system: SNB-75 CNS
SR leukemia = test system: SR leukemia
DU-145 prostate = test system: DU-145 prostate

SMILES	GI50 (ACHN renal) [µM]	TGI (ACHN renal) [µM]	GI50 (HT29 colon) [µM]	TGI (HT29 colon) [µM]	GI50 (IGROV1 ovarian) [µM]	TGI (IGROV1 ovarian) [µM]	GI50 (NCI-H226 lung) [µM]	TGI (NCI-H226 lung) [µM]	GI50 (SNB-19 CNS) [µM]	TGI (SNB-19 CNS) [µM]	GI50 (TK-10 renal) [µM]	TGI (TK-10 renal) [µM]	TGI (OVCAR-4 ovarian) [µM]	TGI (SNB-75 CNS) [µM]	TGI (SR leukemia) [µM]	GI50 (DU-145 prostate) [µM]	TGI (DU-145 prostate) [µM]	GI50 (OVCAR-4 ovarian) [µM]	GI50 (SNB-75 CNS) [µM]	GI50 (SR leukemia) [µM]
O=C(/C=C/c1cc(O)ccc1O)c1ccc(Cl)cc1	25.2	> 100	54.4	> 100	> 100	> 100	22.3	66.8	36.8	> 100	31.6	> 100	–	–	–	–	–	–	–	–
Cc1c(-c2cc(-c3ccccc3)n[nH]c2=O)c2ccccc2n1C	–	> 100	–	> 100	–	> 100	–	> 100	–	> 100	–	> 100	> 100	> 100	> 100	–	–	–	–	–
Nc1ncnc2c1N=CN(Oc1ccccc1)N2	–	> 100	–	> 100	–	> 100	–	> 100	–	–	–	> 100	> 100	> 100	> 100	–	–	–	–	–
CC(C)(C)[Si](C)(C)O/N=C\c1cccc(O[Si](C)(C)C(C)(C)C)c1	–	32	–	31	–	34.9	–	–	–	36.6	–	49.8	34.2	31.8	–	–	–	–	–	–
O=C(CC(=O)c1cccc2ccccc12)C(=O)Nc1nccs1	–	> 100	–	> 100	–	> 100	–	> 100	–	–	–	> 100	> 100	> 100	> 100	–	–	–	–	–
CC/C(=N/O)C(C)C(=O)CCC(=O)Nc1ccc(Cl)cc1 (stereo unspecified)	–	> 100	–	> 100	–	> 100	–	> 100	–	> 100	–	> 100	> 100	> 100	–	–	–	–	–	–
CCN(CC)CCOc1ccccc1-n1c(C)ccc1-c1ccccc1	15.5	30.3	6.22	20.8	14.8	31.8	–	–	15.7	31.9	14.5	29.2	25.7	22.4	–	17.3	32.3	12.2	10.3	–
COc1ccccc1NC(=O)C1=C(C)NC(C)=C(C(=O)Nc2ccccc2OC)C1c1ccc(C2C(C(=O)Nc3ccccc3OC)=C(C)NC(C)=C2C(=O)Nc2ccccc2OC)cc1	–	10	–	4.56	–	3.89	–	12.1	–	12.5	–	16.2	15.6	25	9.93	–	–	–	–	–
Nc1ccccc1-n1c2c(c3ccccc3c1=O)C(=O)c1ccccc1-2	–	18.3	–	> 100	–	> 100	–	> 100	–	23.8	–	–	82.7	> 100	–	–	> 100	–	–	–
NC(=S)N/N=C1/C(=O)N(c2ccccc2)C(=O)C1C(=O)Nc1ccccc1 (stereo unspecified)	–	> 100	–	> 100	–	> 100	–	> 100	–	> 100	–	> 100	> 100	> 100	> 100	–	–	–	–	–
Cc1cccc(/C=N/N=C(\N)NO)n1	–	> 100	–	> 100	–	> 100	–	–	–	–	–	> 100	> 100	80.8	> 100	–	–	–	–	–
CCCCCCCCCCCc1cc(=O)c2c(O)cccc2o1	–	> 100	–	> 100	–	> 100	–	> 100	–	> 100	–	> 100	> 100	> 100	> 100	–	–	–	–	–
COC(=O)CCC(=O)Nc1cc(C)ccc1C	–	> 100	–	> 100	–	> 100	–	> 100	–	> 100	–	> 100	> 100	> 100	–	–	–	–	–	–
CC1=CC[C@@H]2C(=O)C=CC=C[C@H]12.[C-]#[O+].[C-]#[O+].[C-]#[O+].[Fe]	> 100	> 100	> 100	> 100	–	–	> 100	> 100	> 100	> 100	> 100	> 100	> 100	> 100	> 100	–	–	> 100	43.9	> 100
CC(C)(C)c1cc(C#N)c2c(c1)C(=O)OC2(c1ccccc1)c1ccccc1C#N (stereo unspecified)	–	> 100	–	> 100	–	> 100	–	> 100	–	> 100	–	> 100	> 100	> 100	> 100	–	–	–	–	–
CCCCCC/C=C\CCCCCCCCCc1cccc(OC)c1O	–	> 100	–	> 100	–	> 100	–	> 100	–	> 100	–	> 100	–	> 100	–	–	> 100	–	–	–
